Reference: patent US20250361284A1, “TRANSPOSASE FUSION PROTEINS FOR USE IN CELL AND GENE THERAPY” (JULIUS-MAXIMILIANS-UNIVERSITÄT WÜRZBURG, priority 2022, published 2025)

Tests used:
human CD4+ T cells = experiment: Gene transfer (EGFRt+ T cells, flow cytometry) with degron-SB100X in CD4+ T cells; type: cell-based; conditions: for gene transfer rate (EGFRt+ T cells): day 7 post-nucleofection, n=1
Method: (1E) Testing the activity of IKZF3 zinc finger-based degron-SB100X fusion-transposase in human CD4+ T cells. For each condition, 2 million CD3/CD28 activated CD4+ T cells were nucleofected with minicircle DNA encoding a CD19-CAR_EGFRt SB transposon, and plasmid DNA encoding either the wild type SB transposase (SB100X) or the SB fusion-transposase (degron-SB100X). Cells were cultured either in the presence of Pomalidomide (P; 10 μM) or DMSO (D) at the time of nucleofection. At 7 days post-nucleofection, flow cytometric analysis was performed to determine the percentage of T cells that expresses the EGFRt reporter that was encoded in cis with the CD19-CAR. Top panel: Dot plots showing EGFRt expression on day 7 post-nucleofection. Bottom panel: Bar graph showing the percentage of EGFRt+ T cells on day 7 post-nucleofection (n=1).
Anonymous healthy donor blood samples were received upon written consent to participate in research protocols approved by the Institutional Review Board of the Universitätsklinikum Würzburg (UKW). Blood samples were processed for T cells isolation as published earlier (Querques et al., 2019). Briefly, Peripheral blood mononuclear cells (PBMCs) were isolated by density centrifugation with Biocoll separating solution (Biochrom). Both CD4+ and CD8+ T cells were sorted by negative isolation approach using microbeads and magnetic associated cell sorting (MACS, Miltenyi) methods as described by the manufacturer. The isolated CD4+ and CD8+ T cells were cultured in T cell medium (RPMI-1640 with 10% (vol/vol) human serum, 2 mM L-glutamine, 100 U ml-1 penicillin-streptomycin) containing IL-2 (50 units per mL) and activated by anti-CD3/CD28 bead stimulation (Thermo Fisher). Two days post-activation, approximately 2 million T cells were nucleofected with vectors (1 μg of CD19 CAR (EGFRt)-encoding transposon as plasmid or minicircle DNA; 1 μg of mRNA encoding SB transposase) or 10 μg of hsSB protein (Querques et al., 2019) using a 4D Nucleofector (Lonza) as per the manufacturer's instructions. […]

K562/CD19 target cells = experiment: Bioluminescence-based cytolytic activity of CD8+ CD19 CAR T cells; type: cell-based, human; conditions: TMP 1000 nM
Method: (5C) Specific cytolytic activity of CD8+ CD19 CAR-T cells against K562/CD19 target cells. Cytolytic activity of CD8+ CD19-CAR T cells was evaluated by co-culture with K562/CD19 or K562 target cells using a bioluminescence-based assay. The assay was setup with effector T cells (CD8+ CD19-CAR T cells) at various effector/target (E:T) ratios in 96 well flat bottom plates. Luminescence intensities were recorded at specific time points (1, 3, 5, 24 hours) using a luminometer. Specific lysis was calculated using the standard formula. Data shown are from one representative experiment.
(5D) Specific cytolytic activity of CD8+ CD19 CAR-T cells engineered with dd-SB100X fusion transposase vs. wild type SB100X transposase. […] Data was analyzed by unpaired t-test.
Anonymous healthy donor blood samples were received upon written consent to participate in research protocols approved by the Institutional Review Board of the Universitätsklinikum Würzburg (UKW). Blood samples were processed for T cells isolation as published earlier (Querques et al., 2019). Briefly, Peripheral blood mononuclear cells (PBMCs) were isolated by density centrifugation with Biocoll separating solution (Biochrom). Both CD4+ and CD8+ T cells were sorted by negative isolation approach using microbeads and magnetic associated cell sorting (MACS, Miltenyi) methods as described by the manufacturer. […]

Compound: Nc1cccc2c1C(=O)N(C1CCC(=O)NC1=O)C2=O (stereo not shown) [pomalidomide, reference compound]
- effect of pomalidomide on activity of wild type SB100X (lacking the degron tag) (human CD4+ T cells; pomalidomide 10 μM vs DMSO): interfered with the activity of wild type SB100X

Compound: degron-SB100X: IKZF3 zinc finger degron tag fused via linker to N-terminus of SB100X transposase; SEQ ID NO: 3
- gene transfer rate (EGFRt+ T cells) (human CD4+ T cells; DMSO): ~46.4%
- gene transfer rate (EGFRt+ T cells) (human CD4+ T cells; pomalidomide 10 μM): ~1.74%

Compound: COc1cc(Cc2cnc(N)nc2N)cc(OC)c1OC [TMP, trimethoprim]
- effect of TMP treatment on subsequent function of CAR T cells (K562/CD19 target cells): no adverse effects
